Measurements reported in patent publication US8889711B2, “Pyrazolopyridine derivatives as anticancer agent” (Pierre Fabre Medicament, priority 2009, dated 2014).

Tests used:
karpas 299 cells = assay: Measurement of inhibition of cell proliferation (Karpas), ATPlite; format: cell-based; details: Homo sapiens, KARPAS-299, 72 h
Outline: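 Karpas 299 cells seeded at 300 000 cells/ml, treated on Day 1 and incubated at 37° C under 5% CO2 for 72 h. Viability measured on Day 4 by ATPlite luminescence of ATP from viable cells. IC50 derived by non-linear sigmoid dose-response regression with variable Hill slope.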

ALK kinase = ALK kinase (Homo sapiens, UniProt Q9UM73); assay: Test to measure ALK kinase inhibition (GST-PLCγ1 substrate, anti-phosphotyrosine ELISA, luminescence); format: biochemical; details: ALK kinase 180 ng/ml, 250 μM ATP, 30 minutes at 30° C.
Chain of ALK kinase (Q9UM73 19-1620): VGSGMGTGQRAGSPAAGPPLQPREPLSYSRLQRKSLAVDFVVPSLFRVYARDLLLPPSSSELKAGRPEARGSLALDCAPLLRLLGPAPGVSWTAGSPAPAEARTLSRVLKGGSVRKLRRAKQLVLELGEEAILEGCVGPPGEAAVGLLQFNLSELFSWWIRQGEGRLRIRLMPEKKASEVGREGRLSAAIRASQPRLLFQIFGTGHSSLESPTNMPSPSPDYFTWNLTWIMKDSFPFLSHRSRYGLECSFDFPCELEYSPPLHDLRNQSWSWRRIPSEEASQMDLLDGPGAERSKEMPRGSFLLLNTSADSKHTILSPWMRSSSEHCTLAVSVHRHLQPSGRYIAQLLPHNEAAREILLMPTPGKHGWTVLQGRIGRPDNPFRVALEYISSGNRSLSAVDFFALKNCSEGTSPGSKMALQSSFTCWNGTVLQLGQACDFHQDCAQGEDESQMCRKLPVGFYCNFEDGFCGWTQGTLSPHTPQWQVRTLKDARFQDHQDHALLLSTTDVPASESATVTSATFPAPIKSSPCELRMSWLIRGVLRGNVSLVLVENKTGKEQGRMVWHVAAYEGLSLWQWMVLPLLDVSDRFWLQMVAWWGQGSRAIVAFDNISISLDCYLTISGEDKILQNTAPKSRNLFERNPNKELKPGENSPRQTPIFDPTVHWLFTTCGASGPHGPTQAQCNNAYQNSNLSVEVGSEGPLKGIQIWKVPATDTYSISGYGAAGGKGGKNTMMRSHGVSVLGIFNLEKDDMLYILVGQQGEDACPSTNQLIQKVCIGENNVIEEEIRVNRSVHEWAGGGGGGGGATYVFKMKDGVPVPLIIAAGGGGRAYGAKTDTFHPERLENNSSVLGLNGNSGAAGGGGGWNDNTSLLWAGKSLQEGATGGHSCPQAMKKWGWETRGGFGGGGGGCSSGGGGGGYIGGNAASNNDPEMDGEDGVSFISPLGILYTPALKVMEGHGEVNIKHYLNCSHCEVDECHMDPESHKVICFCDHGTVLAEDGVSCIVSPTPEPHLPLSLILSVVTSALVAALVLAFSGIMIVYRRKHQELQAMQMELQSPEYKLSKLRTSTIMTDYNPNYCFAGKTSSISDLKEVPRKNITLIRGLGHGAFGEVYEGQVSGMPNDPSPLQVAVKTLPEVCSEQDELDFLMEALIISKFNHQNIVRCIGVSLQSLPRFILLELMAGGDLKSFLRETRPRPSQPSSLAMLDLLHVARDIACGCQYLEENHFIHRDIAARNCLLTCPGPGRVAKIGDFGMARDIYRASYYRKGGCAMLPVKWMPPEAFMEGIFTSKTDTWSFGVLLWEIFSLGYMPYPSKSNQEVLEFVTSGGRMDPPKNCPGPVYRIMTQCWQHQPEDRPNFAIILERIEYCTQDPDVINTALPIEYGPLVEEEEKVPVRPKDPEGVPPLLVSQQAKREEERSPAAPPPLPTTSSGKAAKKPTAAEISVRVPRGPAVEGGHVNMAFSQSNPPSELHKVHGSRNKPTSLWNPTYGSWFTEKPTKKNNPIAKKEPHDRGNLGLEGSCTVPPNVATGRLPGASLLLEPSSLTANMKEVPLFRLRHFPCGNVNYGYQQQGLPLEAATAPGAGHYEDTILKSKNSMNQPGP
Outline: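 GST-PLCγ1 substrate-coated plate; ALK at 180 ng/ml in Tris pH 7.5 buffer with MgCl2, DTT, β-glycerophosphate, orthovanadate and 250 μM ATP, 30 min at 30 °C, inhibitor typically 30 μM to 10 nM. Phosphotyrosine detected with HRP anti-phosphotyrosine antibody, luminescence read-out.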

Compound `N#Cc1c(-c2cncs2)nc2[nH]nc(-c3cccs3)c2c1-c1ccc(N2CCNCC2)cc1` [Compound 280] has an IC50 (karpas 299 cells) of 1000 to 10000 nM and an IC50 (ALK kinase) of 1000 to 10000 nM.
`N#Cc1c(-c2cscn2)nc2[nH]nc(-c3ccc(N4CCOCC4)cc3)c2c1-c1ccc(N2CCNCC2)cc1` [Compound 281] showed an IC50 (karpas 299 cells) of 1000 to 10000 nM and an IC50 (ALK kinase) of 1000 to 10000 nM.
For `N#Cc1c(-c2ccnc(O)c2)nc2[nH]nc(-c3cccs3)c2c1-c1ccc(N2CCNCC2)cc1` [Compound 282], the IC50 (karpas 299 cells) was over 10000 nM and the IC50 (ALK kinase) was 1000 to 10000 nM.
`Cc1cc(-c2nc3[nH]nc(-c4cccs4)c3c(-c3ccc(N4CCNCC4)cc3)c2C#N)cc(C)c1O` [Compound 283] showed an IC50 (karpas 299 cells) of 1000 to 10000 nM and an IC50 (ALK kinase) of 100 to 1000 nM.
Work on `COC(=O)c1c(-c2ccc(O)cc2F)nc2[nH]nc(C)c2c1-c1ccc(N2CCNCC2)cc1` [Compound 284] yielded an IC50 (karpas 299 cells) of under 100 nM and an IC50 (ALK kinase) of under 100 nM.
`N#Cc1c(-c2cncs2)nc2[nH]nc(-c3ccco3)c2c1-c1ccc(N2CCNCC2)cc1` [Compound 285] was tested, and the IC50 (karpas 299 cells) was 1000 to 10000 nM and the IC50 (ALK kinase) was under 100 nM.
Work on `Cc1cc(-c2nc3[nH]nc(C)c3c(-c3ccc(N4CCNCC4)cc3)c2C#N)c(F)cc1O` [Compound 286] yielded an IC50 (karpas 299 cells) of 100 to 1000 nM and an IC50 (ALK kinase) of under 100 nM.
In the case of `N#Cc1c(-c2ccc(O)cc2F)nc2[nH]ncc2c1-c1ccc(-c2ccc(S(N)(=O)=O)cc2)o1` [Compound 287], the IC50 (karpas 299 cells) is reported as 1000 to 10000 nM and the IC50 (ALK kinase) is reported as under 100 nM.
`COc1ccc(-c2nc3[nH]ncc3c(-c3ccc(C#CCN)o3)c2C#N)cc1` [Compound 288] gave an IC50 (karpas 299 cells) of over 10000 nM and an IC50 (ALK kinase) of 1000 to 10000 nM.
In the case of `N#Cc1c(-c2ccc(O)cc2)nc2[nH]ncc2c1-c1ccc(CCCN)o1` [Compound 289], the IC50 (karpas 299 cells) is reported as 100 to 1000 nM and the IC50 (ALK kinase) is reported as under 100 nM.
`N#Cc1c(-c2ccc(CCl)cc2)nc2[nH]nc(-c3ccc(C(F)(F)F)cc3)c2c1-c1ccc(N2CCNCC2)cc1` [Compound 290] gave an IC50 (karpas 299 cells) of 1000 to 10000 nM and an IC50 (ALK kinase) of 1000 to 10000 nM.
`N#Cc1c(-c2ccc(CO)cc2)nc2[nH]nc(-c3ccc(C(F)(F)F)cc3)c2c1-c1ccc(N2CCNCC2)cc1` [Compound 291] was tested, and the IC50 (karpas 299 cells) was 1000 to 10000 nM and the IC50 (ALK kinase) was 1000 to 10000 nM.
`COC(=O)c1c(-c2ccc(O)c(C)c2)nc2[nH]nc(C)c2c1-c1ccc(N2CCNCC2)cc1` [Compound 293] showed an IC50 (karpas 299 cells) of under 100 nM and an IC50 (ALK kinase) of under 100 nM.
Work on `Cc1cc(-c2nc3[nH]nc(N)c3c(-c3ccc(N4CCNCC4)cc3)c2C#N)c(F)cc1O` [Compound 294] yielded an IC50 (karpas 299 cells) of 100 to 1000 nM and an IC50 (ALK kinase) of under 100 nM.
With `COC(=O)c1c(-c2ccc(O)cc2F)nc2[nH]nc(N)c2c1-c1ccc(N2CCNCC2)cc1` [Compound 295] the IC50 (karpas 299 cells) was 100 to 1000 nM and the IC50 (ALK kinase) was under 100 nM.
Compound `CC(C)(C)C(=O)Oc1ccc(-c2nc3[nH]nc(-c4cccs4)c3c(-c3ccc(N4CCNCC4)cc3)c2C#N)c(F)c1` [Compound 296] has an IC50 (karpas 299 cells) of 100 to 1000 nM and an IC50 (ALK kinase) of 100 to 1000 nM.
For `N#Cc1c(-c2ccc(OC(=O)c3ccccc3)cc2F)nc2[nH]nc(-c3cccs3)c2c1-c1ccc(N2CCNCC2)cc1` [Compound 297], the IC50 (karpas 299 cells) was 100 to 1000 nM and the IC50 (ALK kinase) was 100 to 1000 nM.
For `CC(=O)Oc1ccc(-c2nc3[nH]nc(-c4cccs4)c3c(-c3ccc(N4CCNCC4)cc3)c2C#N)c(F)c1` [Compound 298], the IC50 (karpas 299 cells) was over 10000 nM and the IC50 (ALK kinase) was 100 to 1000 nM.
Compound `CN(C)CCN1CCN(c2ccc(-c3c(C#N)c(-c4ccc(O)cc4)nc4[nH]nc(-c5ccc(Cl)cc5)c34)c(F)c2)CC1` [Compound 299] has an IC50 (karpas 299 cells) of 1000 to 10000 nM and an IC50 (ALK kinase) of under 100 nM.
With `COC(=O)c1c(-c2ccc(OC(=O)C(C)(C)C)cc2F)nc2[nH]nc(C)c2c1-c1ccc(N2CCNCC2)cc1` [Compound 300] the IC50 (karpas 299 cells) was under 100 nM and the IC50 (ALK kinase) was under 100 nM.
Compound `CC(C)(C)C(=O)Oc1ccc(-c2nc3[nH]nc(N)c3c(-c3ccc(N4CCNCC4)cc3)c2C#N)c(F)c1` [Compound 301] has an IC50 (karpas 299 cells) of over 10000 nM and an IC50 (ALK kinase) of 100 to 1000 nM.
